In US20190192699A1, “NUCLEAR IMAGING AND RADIOTHERAPEUTICS AGENTS TARGETING CARBONIC ANHYDRASE IX AND USES THEREOF” (THE JOHNS HOPKINS UNIVERSITY, priority 2016, published 2019):
Several values for one entry are separate records, joined by “and”; a condition that tells them apart may be missing. Equal values may be shown once. Entries after “also recorded” stand apart in the source; their conditions may differ.

Tests used:
SK-RC-52 xenografts = assay: Biodistribution of [111In]XYIMSR-01 and [177Lu]XYIMSR-01; format: in vivo, mice
Experimental: (§1) Cell Lines and Mouse Models. Animal experiments were performed in accordance with protocols approved by the Johns Hopkins Animal Care and Use Committee (ACUC). Six-week-old female NOD/SCID mice were purchased from the Animal Resource Core of the Sidney Kimmel Comprehensive Cancer Center of Johns Hopkins and were subcutaneously injected in the lower left flank or upper right flank with 1×10^6 SK-RC-52 cells in RPMI 1640 GlutaMAX™ media (Life Technologies, Frederick, Md.) supplemented with 1% fetal bovine serum (FBS). Mice were monitored for tumor size and used for SPECT/CT imaging when the size of the tumor reached 100 mm^3.
Biodistribution of [^111In]XYIMSR-01 and [^177Lu]XYIMSR-01. Mice bearing SK-RC-52 xenografts at lower left flank were injected intravenously with 740 kBq (20 μCi) of [^111In]XYIMSR-01, or [^177Lu]XYIMSR-01 in 200 μL of PBS. For competitive blocking, same tumor bearing mice were injected with 740 kBq (20 μCi) of [^111In]XYIMSR-01 and 200 nmole of 1 in 200 μL of PBS. At 1 h, 4 h, 8 h, 24 h and 48 h post-injection, mice were sacrificed by cervical dislocation and the blood was immediately collected by cardiac puncture. Heart, lungs, pancreas, spleen, fat, brain, muscle, small intestines, liver, stomach, kidney, urinary bladder, and tumor were collected. Each organ was weighed and the tissue radioactivity was measured with an automated gamma counter (1282 Compugamma CS, Pharmacia/LKBNuclear, Inc., Mt. Waverly, Vic. Australia). The percentage of injected dose per gram of tissue (% ID/g) was calculated by comparison with samples of a standard dilution of the initial dose. All measurements were corrected for radioactive decay.
Data were expressed as mean±standard deviation (SD). Prism software (GraphPAD, San Diego, Calif.) was used to determine statistical significance. Statistical significance was calculated using a paired t test. P-values […] were considered significant.

[1] = test system: CAIX-expressing SK-RC-52 tumors; assay: SPECT/CT imaging of [111In]XYIMSR-01; format: in vivo, mice; details: 14.8 MBq (400 μCi) via tail vein
Experimental: as §1
SPECT/CT imaging of [^111In]XYIMSR-01. Mice harboring subcutaneous SK-RC-52 tumors with the lower left flank were injected with 14.8 MBq (400 μCi) of [^111In]XYIMSR-01 in 250 μL of PBS (pH=7.0) intravenously (tail vein). Anesthesia was then induced with 3% isofluorane and maintained at 2% isoflurane. Physiologic temperature was maintained with an external light source while the mouse was on the gantry. Imaging employed a CT-equipped Gamma Medica-Ideas SPECT scanner (Northridge, Calif.). SPECT data were acquired in 64 projections at 65 s per projection using medium energy pinhole collimators. A CT scan was performed in 512 projections at the end of each SPECT scan for anatomic co-registration. […]

[2] = 24 hr + Block (200 nmole of 1 co-injected)
[3] = 48 hr + Block (200 nmole of 1 co-injected)

## CC(CCC(=O)N[C@@H](CC(=O)N[C@@H](CC(=O)N[C@@H](CCCCn1cc(CCCC(=O)Nc2nnc(S(N)(=O)=O)s2)nn1)C(=O)NCCOCCOCCNC(=O)CN1CCN(CC(=O)[O-])CCN(CC(=O)[O-])CCN(CC(=O)[O-])CC1)C(=O)O)C(=O)O)(c1ccc(O)cc1)c1ccc(O)cc1.[111In+3] [[^111In]XYIMSR-01]
SK-RC-52 xenografts; 1 hr post-injection
  Biodistribution: Bladder: 4.90 ± 4.96 % ID/g
  Biodistribution: Blood: 1.34 ± 0.17 % ID/g
  Biodistribution: Brain: 1.23 ± 1.10 % ID/g
  Biodistribution: Fat: 1.03 ± 0.24 % ID/g
  Biodistribution: Heart: 5.98 ± 0.53 % ID/g
  Biodistribution: Kidney: 71.26 ± 8.74 % ID/g
  Biodistribution: Liver: 8.36 ± 0.73 % ID/g
  Biodistribution: Lung: 45.85 ± 19.89 % ID/g
  Biodistribution: Muscle: 2.34 ± 2.19 % ID/g
  Biodistribution: Pancreas: 3.81 ± 0.72 % ID/g
  Biodistribution: Small intestine: 9.37 ± 1.26 % ID/g
  Biodistribution: Spleen: 0.52 ± 0.04 % ID/g
  Biodistribution: Stomach: 16.71 ± 2.46 % ID/g
  Biodistribution: Tumor: 26 % ID/g and 26.01 ± 5.74 % ID/g
  Tumor/Blood ratio: 19.7 and 19.7 ± 4.8
  Tumor/Kidney ratio: 0.36 ± 0.06
  Tumor/Muscle ratio: 12.7 and 12.7 ± 5.8
SK-RC-52 xenografts; 4 hr post-injection
  Biodistribution: Bladder: 2.68 ± 1.89 % ID/g
  Biodistribution: Blood: 0.65 ± 0.06 % ID/g
  Biodistribution: Brain: 0.45 ± 0.06 % ID/g
  Biodistribution: Fat: 0.42 ± 0.22 % ID/g
  Biodistribution: Heart: 2.91 ± 0.45 % ID/g
  Biodistribution: Kidney: 41.52 ± 6.07 % ID/g
  Biodistribution: Liver: 4.00 ± 0.8 % ID/g
  Biodistribution: Lung: 17.85 ± 3.55 % ID/g
  Biodistribution: Muscle: 1.01 ± 0.28 % ID/g
  Biodistribution: Pancreas: 1.54 ± 0.40 % ID/g
  Biodistribution: Small intestine: 4.27 ± 0.69 % ID/g
  Biodistribution: Spleen: 0.51 ± 0.08 % ID/g
  Biodistribution: Stomach: 7.91 ± 1.28 % ID/g
  Biodistribution: Tumor: 20.8 % ID/g and 20.83 ± 6.25 % ID/g
  Tumor/Blood ratio: 31.9 ± 9.4
  Tumor/Kidney ratio: 0.50 ± 0.15
  Tumor/Muscle ratio: 21.4 ± 7.2
SK-RC-52 xenografts; 8 hr post-injection
  Biodistribution: Bladder: 2.28 ± 0.51 % ID/g
  Biodistribution: Blood: 0.48 ± 0.02 % ID/g
  Biodistribution: Brain: 0.59 ± 0.09 % ID/g
  Biodistribution: Fat: 0.45 ± 0.08 % ID/g
  Biodistribution: Heart: 2.61 ± 0.35 % ID/g
  Biodistribution: Kidney: 28.79 ± 21.35 % ID/g
  Biodistribution: Liver: 3.65 ± 0.65 % ID/g
  Biodistribution: Lung: 17.39 ± 8.99 % ID/g
  Biodistribution: Muscle: 1.09 ± 0.15 % ID/g
  Biodistribution: Pancreas: 1.61 ± 0.28 % ID/g
  Biodistribution: Small intestine: 4.31 ± 0.67 % ID/g
  Biodistribution: Spleen: 0.64 ± 0.07 % ID/g
  Biodistribution: Stomach: 8.74 ± 1.26 % ID/g
  Biodistribution: Tumor: 34.0 % ID/g and 34.00 ± 15.16 % ID/g
  Tumor/Blood ratio: 77.0 ± 32.5
  Tumor/Kidney ratio: 3.1 ± 3.1
  Tumor/Muscle ratio: 34.2 ± 16.0
SK-RC-52 xenografts; 24 h
  Tumor/liver ratio: 8.5
SK-RC-52 xenografts; 24 h and 48 h post injection
  uptake to tumors with simultaneously injected non-radioactive competitor 1: ~1%
SK-RC-52 xenografts; 24 h post-injection
  tumor/organ ratio, all other organs: ≥ 10
SK-RC-52 xenografts; [2]
  Biodistribution: Bladder: 0.20 ± 0.07 % ID/g
  Biodistribution: Blood: 0.03 ± 0.00 % ID/g
  Biodistribution: Brain: 0.03 ± 0.00 % ID/g
  Biodistribution: Fat: 0.02 ± 0.01 % ID/g
  Biodistribution: Heart: 0.04 ± 0.01 % ID/g
  Biodistribution: Kidney: 0.68 ± 0.14 % ID/g
  Biodistribution: Liver: 0.10 ± 0.02 % ID/g
  Biodistribution: Lung: 0.12 ± 0.02 % ID/g
  Biodistribution: Muscle: 0.02 ± 0.00 % ID/g
  Biodistribution: Pancreas: 0.03 ± 0.00 % ID/g
  Biodistribution: Small intestine: 0.08 ± 0.01 % ID/g
  Biodistribution: Spleen: 0.08 ± 0.01 % ID/g
  Biodistribution: Stomach: 0.14 ± 0.02 % ID/g
  Biodistribution: Tumor: 1.41 ± 0.20 % ID/g
  Tumor/Blood ratio: 45.2 ± 9.7
  Tumor/Kidney ratio: 2.1 ± 0.3
  Tumor/Muscle ratio: 91.4 ± 11.1
SK-RC-52 xenografts; 24 hr post-injection
  Biodistribution: Bladder: 0.74 ± 0.17 % ID/g
  Biodistribution: Blood: 0.15 ± 0.02 % ID/g
  Biodistribution: Brain: 0.71 ± 0.85 % ID/g
  Biodistribution: Fat: 0.28 ± 0.19 % ID/g
  Biodistribution: Heart: 1.16 ± 0.20 % ID/g
  Biodistribution: Kidney: 15.29 ± 1.69 % ID/g
  Biodistribution: Liver: 3.02 ± 3.46 % ID/g
  Biodistribution: Lung: 11.01 ± 3.71 % ID/g
  Biodistribution: Muscle: 0.35 ± 0.12 % ID/g
  Biodistribution: Pancreas: 0.69 ± 0.18 % ID/g
  Biodistribution: Small intestine: 2.11 ± 0.33 % ID/g
  Biodistribution: Spleen: 0.69 ± 0.39 % ID/g
  Biodistribution: Stomach: 3.31 ± 1.25 % ID/g
  Biodistribution: Tumor: 25.6 % ID/g and 25.62 ± 17.67 % ID/g
  Tumor/Blood ratio: 178.1±145.4 and 178
  Tumor/Kidney ratio: 1.7±1.2 and 1.7
  Tumor/Muscle ratio: 68.4±29.0 and 68
SK-RC-52 xenografts; [3]
  Biodistribution: Bladder: 0.14 ± 0.03 % ID/g
  Biodistribution: Blood: 0.03 ± 0.00 % ID/g
  Biodistribution: Brain: 0.03 ± 0.01 % ID/g
  Biodistribution: Fat: 0.03 ± 0.01 % ID/g
  Biodistribution: Heart: 0.04 ± 0.01 % ID/g
  Biodistribution: Kidney: 0.45 ± 0.09 % ID/g
  Biodistribution: Liver: 0.13 ± 0.04 % ID/g
  Biodistribution: Lung: 0.09 ± 0.02 % ID/g
  Biodistribution: Muscle: 0.02 ± 0.00 % ID/g
  Biodistribution: Pancreas: 0.03 ± 0.01 % ID/g
  Biodistribution: Small intestine: 0.08 ± 0.02 % ID/g
  Biodistribution: Spleen: 0.11 ± 0.03 % ID/g
  Biodistribution: Stomach: 0.14 ± 0.03 % ID/g
  Biodistribution: Tumor: 1.22 ± 0.54 % ID/g
  Tumor/Blood ratio: 45.4 ± 13.8
  Tumor/Kidney ratio: 2.7 ± 0.8
  Tumor/Muscle ratio: 75.1 ± 17.7
SK-RC-52 xenografts; 48 hr post-injection
  Biodistribution: Bladder: 0.38 ± 0.18 % ID/g
  Biodistribution: Blood: 0.06 ± 0.02 % ID/g
  Biodistribution: Brain: 0.41 ± 0.05 % ID/g
  Biodistribution: Fat: 0.25 ± 0.08 % ID/g
  Biodistribution: Heart: 0.84 ± 0.16 % ID/g
  Biodistribution: Kidney: 8.78 ± 1.89 % ID/g
  Biodistribution: Liver: 1.65 ± 0.26 % ID/g
  Biodistribution: Lung: 9.22 ± 1.25 % ID/g
  Biodistribution: Muscle: 0.39 ± 0.28 % ID/g
  Biodistribution: Pancreas: 0.59 ± 0.18 % ID/g
  Biodistribution: Small intestine: 1.22 ± 0.44 % ID/g
  Biodistribution: Spleen: 0.67 ± 0.13 % ID/g
  Biodistribution: Stomach: 1.82 ± 0.43 % ID/g
  Biodistribution: Tumor: 13.9 % ID/g and 13.92 ± 6.67 % ID/g
  Tumor/Blood ratio: 212.0 ± 41.4
  Tumor/Kidney ratio: 1.5 ± 0.5
  Tumor/Muscle ratio: 52.0 ± 21.0
[1]
  SPECT/CT tumor imaging finding: radiotracer uptake in tumor as early as 1 h post-injection; also recorded: radiotracer uptake was observed within the tumors at 1 h post-injection; also recorded: enabled specific imaging of CAIX-expressing SK-RC-52 tumors
